Legend:
[1] = molecular target: T1, Stimulator of interferon genes protein (Homo sapiens, UniProt Q86WV6); assay: Agonist activity at human STING expressed in human THP-1 cells expressing IRF inducible SEAP reporter construct assessed as increase in interferon production incubated for 24 hrs by QUANTI-Blue colorimetric assay; assay type: cell-based
Target sequence in this assay (Q86WV6 whole entry): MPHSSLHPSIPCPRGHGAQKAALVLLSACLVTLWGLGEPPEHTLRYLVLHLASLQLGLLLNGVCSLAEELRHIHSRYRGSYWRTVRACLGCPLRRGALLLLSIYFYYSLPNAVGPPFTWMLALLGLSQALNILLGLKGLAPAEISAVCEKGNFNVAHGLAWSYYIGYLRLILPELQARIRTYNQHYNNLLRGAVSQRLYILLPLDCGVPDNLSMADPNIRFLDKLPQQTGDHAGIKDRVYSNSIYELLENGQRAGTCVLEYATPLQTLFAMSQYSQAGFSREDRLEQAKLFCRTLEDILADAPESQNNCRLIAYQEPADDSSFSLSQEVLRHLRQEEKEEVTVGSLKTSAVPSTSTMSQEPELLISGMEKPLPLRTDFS

[2] = molecular target: T1, Stimulator of interferon genes protein; assay: Agonist activity at human wild type STING overexpressed in STING knockout human THP1-Blue ISG cells expressing IRF inducible SEAP reporter construct assessed as increase in interferon production by measuring SEAP activity incubated for 24 hrs by Fingerprinting based QUANTI-Blue colorimetric assay; assay type: cell-based
Target sequence in this assay (Q86WV6 whole entry): as above

[3] = molecular target: T1, Stimulator of interferon genes protein; assay: Agonist activity at human STING HAQ variant overexpressed in STING knockout human THP1-Blue ISG cells expressing IRF inducible SEAP reporter construct assessed as increase in interferon production by measuring SEAP activity incubated for 24 hrs by Fingerprinting based QUANTI-Blue colorimetric assay; assay type: cell-based
Target sequence in this assay (Q86WV6 whole entry, looked up, change not shown): as the sequence (Q86WV6 whole entry) above

[4] = molecular target: T1, Stimulator of interferon genes protein; assay: Agonist activity at human STING REF variant overexpressed in STING knockout human THP1-Blue ISG cells expressing IRF inducible SEAP reporter construct assessed as increase in interferon production by measuring SEAP activity incubated for 24 hrs by Fingerprinting based QUANTI-Blue colorimetric assay; assay type: cell-based
Target sequence in this assay (Q86WV6 whole entry, looked up, change not shown): as the sequence (Q86WV6 whole entry) above

[5] = molecular target: T1, Stimulator of interferon genes protein; assay: Agonist activity at human STING AQ variant overexpressed in STING knockout human THP1-Blue ISG cells expressing IRF inducible SEAP reporter construct assessed as increase in interferon production by measuring SEAP activity incubated for 24 hrs by Fingerprinting based QUANTI-Blue colorimetric assay; assay type: cell-based
Target sequence in this assay (Q86WV6 whole entry, looked up, change not shown): as the sequence (Q86WV6 whole entry) above

[6] = molecular target: T1, Stimulator of interferon genes protein; assay: Agonist activity at human STING Q variant overexpressed in STING knockout human THP1-Blue ISG cells expressing IRF inducible SEAP reporter construct assessed as increase in interferon production by measuring SEAP activity incubated for 24 hrs by Fingerprinting based QUANTI-Blue colorimetric assay; assay type: cell-based
Target sequence in this assay (Q86WV6 whole entry, looked up, change not shown): as the sequence (Q86WV6 whole entry) above

[7] = molecular target: T1, Stimulator of interferon genes protein; assay: Agonist activity at human STING in STING knockout human THP1-Blue ISG cells expressing IRF inducible SEAP reporter construct assessed as increase in interferon production by measuring SEAP activity incubated for 24 hrs by Fingerprinting based QUANTI-Blue colorimetric assay; assay type: cell-based
Target sequence in this assay (Q86WV6 whole entry): as above

[8] = molecular target: T1, Stimulator of interferon genes protein; details: filed as agonist
Target sequence in this assay (Q86WV6 whole entry): as above
Description: Binding affinity to recombinant human wild type STING (155 to 341 residues) expressed in Escherichia coli BL21 DE3 assessed as thermal stabilization by measuring change in melting temperature by differential scanning fluorimetry

[9] = molecular target: hERG (KCNH2) (Homo sapiens, UniProt Q12809); assay: Inhibition of human ERG at 10 uM; assay type: toxicity
Sequence of hERG (KCNH2) (Q12809 whole entry): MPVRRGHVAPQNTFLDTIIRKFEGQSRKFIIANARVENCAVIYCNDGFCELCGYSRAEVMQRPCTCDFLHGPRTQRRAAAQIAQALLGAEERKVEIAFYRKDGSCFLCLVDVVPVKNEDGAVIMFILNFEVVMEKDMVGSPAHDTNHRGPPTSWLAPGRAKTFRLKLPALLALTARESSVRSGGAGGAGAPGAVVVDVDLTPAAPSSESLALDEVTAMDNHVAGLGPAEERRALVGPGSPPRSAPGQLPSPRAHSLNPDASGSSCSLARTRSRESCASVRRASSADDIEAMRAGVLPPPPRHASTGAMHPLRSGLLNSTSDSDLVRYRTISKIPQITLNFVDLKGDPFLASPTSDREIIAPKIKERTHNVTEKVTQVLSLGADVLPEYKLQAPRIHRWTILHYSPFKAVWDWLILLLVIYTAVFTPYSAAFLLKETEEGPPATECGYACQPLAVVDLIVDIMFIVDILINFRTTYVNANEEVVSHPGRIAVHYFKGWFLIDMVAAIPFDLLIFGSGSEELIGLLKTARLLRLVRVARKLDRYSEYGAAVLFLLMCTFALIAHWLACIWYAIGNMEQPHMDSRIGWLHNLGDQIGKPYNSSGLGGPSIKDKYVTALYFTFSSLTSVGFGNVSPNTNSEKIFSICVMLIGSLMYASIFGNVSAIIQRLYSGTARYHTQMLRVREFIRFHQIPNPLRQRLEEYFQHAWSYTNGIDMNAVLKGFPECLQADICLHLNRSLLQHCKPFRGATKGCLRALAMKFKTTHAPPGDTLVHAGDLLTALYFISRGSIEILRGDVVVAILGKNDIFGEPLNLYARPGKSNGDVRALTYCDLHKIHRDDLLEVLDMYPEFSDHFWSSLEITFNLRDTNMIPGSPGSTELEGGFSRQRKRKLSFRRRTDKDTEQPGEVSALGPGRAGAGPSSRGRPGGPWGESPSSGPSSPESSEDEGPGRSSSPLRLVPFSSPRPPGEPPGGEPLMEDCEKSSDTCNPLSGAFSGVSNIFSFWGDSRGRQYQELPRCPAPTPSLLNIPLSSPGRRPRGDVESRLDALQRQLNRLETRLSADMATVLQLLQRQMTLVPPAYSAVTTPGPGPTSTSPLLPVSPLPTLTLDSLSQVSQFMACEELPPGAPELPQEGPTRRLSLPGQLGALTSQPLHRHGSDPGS

[10] = Stability in mouse plasma assessed as half life at 1 uM by HPLC/MS/MS analysis; assay type: ADME, cell-free
[11] = Protein binding in mouse plasma assessed as unbound fraction at 3 uM incubated for 2 hrs by equilibrium dialysis based HPLC/MS/MS analysis; assay type: ADME, cell-free
[12] = Clearance in C57BL/6 mouse plasma assessed as hepatic blood flow at 1 micromol/kg, iv by HPLC/MS/MS analysis; assay type: ADME, organism-based; details: in vivo, at 1 µmol/kg
[13] = Volume of distribution at steady state in C57BL/6 mouse at 1 micromol/kg, iv by HPLC/MS/MS analysis; assay type: ADME, organism-based; details: in vivo, dose 1 µmol/kg, read-out: Vdss
[14] = MRT in C57BL/6 mouse at 1 micromol/kg, iv by HPLC/MS/MS analysis; assay type: ADME, organism-based; details: in vivo, dose 1 µmol/kg
[15] = molecular target: T2, Stimulator of interferon genes protein (Mus musculus) (UniProt Q3TBT3); details: filed as agonist
T2 sequence (whole entry): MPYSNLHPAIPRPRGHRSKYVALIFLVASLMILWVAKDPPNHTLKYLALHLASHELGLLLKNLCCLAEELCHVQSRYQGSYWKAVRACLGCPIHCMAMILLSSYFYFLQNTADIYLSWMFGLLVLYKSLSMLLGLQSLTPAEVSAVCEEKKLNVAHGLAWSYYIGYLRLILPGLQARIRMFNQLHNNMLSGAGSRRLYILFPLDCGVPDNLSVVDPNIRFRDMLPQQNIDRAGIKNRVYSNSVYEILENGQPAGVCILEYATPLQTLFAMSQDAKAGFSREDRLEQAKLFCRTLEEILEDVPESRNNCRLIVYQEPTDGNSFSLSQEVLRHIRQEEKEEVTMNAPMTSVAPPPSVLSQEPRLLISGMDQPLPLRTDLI
Description: Binding affinity to recombinant mouse STING assessed as change in melting temperature by differential scanning fluorimetry

[16] = Stability in human plasma assessed as half life at 1 uM by HPLC/MS/MS analysis; assay type: ADME, cell-free
[17] = Protein binding in human plasma assessed as unbound fraction at 3 uM incubated for 2 hrs by equilibrium dialysis based HPLC/MS/MS analysis; assay type: ADME, cell-free
[18] = Aqueous solubility of compound in phosphate buffer at pH 7.6 incubated for 2 hrs by HPLC-UV analysis; assay type: physicochemical
[19] = Aqueous solubility of compound in 0.9% NaCl buffer at pH 6.4 incubated for 2 hrs by HPLC-UV analysis; assay type: physicochemical
[20] = Chemical stability of compound in phosphate buffer assessed as compound degradation at 1 mg/ml incubated for 8 weeks at 40 degreeC by HPLC-UV analysis; assay type: physicochemical; details: read-out: Drug degradation
[21] = Chemical stability of compound in 0.9% NaCl buffer assessed as compound degradation at 1 mg/ml incubated for 8 weeks at 40 degreeC by HPLC-UV analysis; assay type: physicochemical; details: read-out: Drug degradation
[22] = Elimination half life in BALB/c syngeneic mouse tumor xenografted with mouse 4T1 cells at 0.16 to 1.4 mg/kg,IT and measured upto 25 hrs by HPLC/MS/MS analysis; assay type: ADME, organism-based, Neoplasm; details: dose 0.16-1.4 mg/kg, read-out: beta t1/2 (converted)
[23] = Clearance in C57BL/6 mouse plasma assessed as hepatic blood flow at 10 micromol/kg, iv by HPLC/MS/MS analysis; assay type: ADME, organism-based; details: in vivo, at 10 µmol/kg
[24] = Volume of distribution at steady state in C57BL/6 mouse at 10 micromol/kg, iv by HPLC/MS/MS analysis; assay type: ADME, organism-based; details: in vivo, dose 10 µmol/kg, read-out: Vdss
[25] = MRT in C57BL/6 mouse at 10 micromol/kg, iv by HPLC/MS/MS analysis; assay type: ADME, organism-based; details: in vivo, dose 10 µmol/kg

Row | EC50 [1] | EC50 [2] | EC50 [3] | EC50 [4] | EC50 [5] | EC50 [6] | EC50 [7] | deltaTm [8] | SMILES | also measured
1 | > 100000 nM | – | – | – | – | – | – | 3.7 K | CO[C@@H]1[C@@H]2O[P@](=O)(S)OC[C@H]3O[C@@H](n4cnc5c(=O)[nH]ncc54)[C@H](O[P@](=O)(S)OC[C@H]2O[C@H]1n1cnc2c(N)ncnc21)[C@@H]3O | –
2 | 230 nM | 1950 nM | 2060 nM | > 50000 nM | 1670 nM | 22500 nM | > 50000 nM | 13.9 K | O=c1[nH]ncc2c1ncn2[C@@H]1O[C@@H]2CO[P@@](=O)(S)O[C@H]3[C@@H](O)[C@H](n4cnc5cncnc54)O[C@@H]3CO[P@@](=O)(S)O[C@@H]1[C@@H]2O | –
3 | > 100000 nM | – | – | – | – | – | – | 3.6 K | O=c1[nH]ncc2c1ncn2[C@@H]1O[C@@H]2CO[P@@](=O)(S)O[C@H]3[C@@H](O)[C@H](n4cnc5ccccc54)O[C@@H]3CO[P@@](=O)(S)O[C@@H]1[C@@H]2O | –

Further lines, the molecule ahead of its results:

Row | SMILES | EC50 [1] | EC50 [2] | EC50 [3] | EC50 [4] | EC50 [5] | EC50 [6] | EC50 [7] | deltaTm [8] | also measured
4 | Nc1ncnc2c1ncn2[C@@H]1O[C@@H]2CO[P@@](=O)(S)O[C@@H]3[C@H](O)[C@@H](CO[P@@](=O)(S)O[C@H]2[C@H]1F)O[C@H]3c1cnn2c(=O)[nH]ncc12 | 140 nM | 830 nM | 1040 nM | 24300 nM | 680 nM | 3380 nM | > 50000 nM | 18 K | –
5 | Nc1ncnc2c1ncn2[C@@H]1O[C@@H]2CO[P@@](=O)(S)O[C@@H]3[C@H](O)[C@@H](CO[P@@](=O)(S)O[C@H]2[C@H]1O)O[C@H]3n1cnc2c(N)ncnc21 | – | – | – | – | – | – | – | – | inhibition at 10 µM [9]: 0.4%; half-life at 1 µM [10]: > 2.17 h; fraction unbound at 2 h, 3 µM [11]: 0.32; QH [12]: 120%; Vd [13]: 0.8 L/kg; MRT [14]: 7.2 min; deltaTm [15]: 13.5 K
6 | Nc1ncnc2c1ncn2[C@@H]1O[C@@H]2CO[P@@](=O)(S)O[C@@H]3[C@H](O)[C@@H](CO[P@@](=O)(S)O[C@H]2[C@H]1F)O[C@H]3n1cnc2c(=O)[nH]nnc21 | 160 nM | 580 nM | 580 nM | 6010 nM | 610 nM | 1880 nM | > 50000 nM | 23.9 K | –
7 | Nc1ncnc2c1ncn2[C@@H]1CO[C@@H]2O[P@@](=O)(S)O[C@@H]3[C@H](O)[C@@H](CO[P@@](=O)(S)O[C@H]2[C@H]1O)O[C@H]3n1cnc2c(=O)[nH]ncc21 | > 100000 nM | – | – | – | – | – | – | 1.75 K | –
8 | Nc1ncnc2c1ncn2[C@@H]1O[C@@]23CO[C@@H]1[C@@H]2O[P@](=O)(S)OC[C@H]1O[C@@H](n2cnc4c(=O)[nH]ncc42)[C@H](O[P@](=O)(S)OC3)[C@@H]1O | 170 nM | – | – | – | – | – | – | 17 K | –
9 | Nc1ncnc2c1ncn2[C@@H]1O[C@@H]2CO[P@@](=O)(S)O[C@@H]3[C@H](O)[C@@H](CO[P@@](=O)(S)O[C@H]2[C@H]1F)O[C@H]3n1cnc2c(=O)[nH]ncc21 | – | – | – | – | – | – | – | – | inhibition at 10 µM [9]: 1%; half-life at 1 µM [16]: > 2.17 h; half-life at 1 µM [10]: > 2.17 h; fraction unbound at 2 h, 3 µM [17]: 0.74; fraction unbound at 2 h, 3 µM [11]: 0.77; solubility at 2 h [18]: > 10000 µg/mL; solubility at 2 h [19]: > 10000 µg/mL; degraded at 1344 h, 1 mg/ml [20]: > 0.5%; degraded at 1344 h, 1 mg/ml [21]: > 0.5%; half-life [22]: 7 h; QH [23]: 78%; Vd [24]: 2.2 L/kg; MRT [25]: 0.53 h
